Experimental data: PubChem BioAssay AID248 (DTP/NCI, 2004)
“And” between values parts separate entries of the source, which are not always exact repeats. Equal entries are not always repeated. Toxic doses and inconclusive results are not listed. No stated cut-off is given here; in the data, active means T/C of 150% or more; inactive means T/C below 125%.

Test system: L1210 leukemia ip in BDF1 mice, survival T/C
Assay: NCI In Vivo Anticancer Drug Screen. Data for tumor model L1210 Leukemia (intraperitoneal) in B6D2F1 (BDF1) mice
Settings: endpoint: mean survival time, higher = longer survival
How it was run: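 In this screen, tumor-bearing mice given compound are compared to those given vehicle, and their survival values are reported as a treated-to-control quotient.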

[1] = dose: 100.0 mg/kg/injection, schedule: Q01DX001 (ip), vehicle: saline
[2] = dose: 100.0 mg/kg/injection, schedule: Q04DX003 (ip), vehicle: Klucel (hydroxypropylcellulose) (HPC)
[3] = dose: 200.0 mg/kg/injection, schedule: Q04DX003 (ip), vehicle: Klucel (hydroxypropylcellulose) (HPC)
[4] = dose: 100.0 mg/kg/injection, schedule: Q01DX009 (ip), vehicle: Klucel (hydroxypropylcellulose) (HPC)
[5] = dose: 200.0 mg/kg/injection, schedule: Q01DX009 (ip), vehicle: Klucel (hydroxypropylcellulose) (HPC)
[6] = dose: 400.0 mg/kg/injection, schedule: Q01DX009 (ip), vehicle: Klucel (hydroxypropylcellulose) (HPC)
[7] = dose: 200.0 mg/kg/injection, schedule: Q01DX001 (ip), vehicle: saline
[8] = dose: 400.0 mg/kg/injection, schedule: Q01DX001 (ip), vehicle: saline
[9] = dose: 400.0 mg/kg/injection, schedule: Q04DX002 (ip), vehicle: Klucel (hydroxypropylcellulose) (HPC)

Measured: T/C

O=C1N(c2cc([N+](=O)[O-])ccc2F)C(=O)C(F)(F)C1(F)F
inactive: dose: 100.0 mg/kg/injection, schedule: Q01DX001 (ip), vehicle: saline with Tween-80 102 % of control | dose: 200.0 mg/kg/injection, schedule: Q01DX001 (ip), vehicle: saline with Tween-80 97 % of control

CC(=O)OC1CCCCC1NC(=O)N(CCCl)N=O (centres undefined)
active: dose: 27.0 mg/kg/injection, schedule: Q01DX001 (ip), vehicle: carboxymethylcellulose (CMC) 333 % of control | dose: 40.0 mg/kg/injection, schedule: Q01DX001 (ip), vehicle: carboxymethylcellulose (CMC) 423 % of control | dose: 60.0 mg/kg/injection, schedule: Q01DX001 (ip), vehicle: carboxymethylcellulose (CMC) 422 % of control | dose: 90.0 mg/kg/injection, schedule: Q01DX001 (ip), vehicle: carboxymethylcellulose (CMC) 170 % of control

OC(Nc1ccccn1)(C(F)(F)F)C(F)(F)F
inactive: [1] 103 % of control

CCCCCCCCCCCCCCCC(CCCC)c1ccccc1 (centres undefined)
inactive: dose: 100.0 mg/kg/injection, schedule: Q01DX001 (ip), vehicle: saline + alcohol 91 % of control | dose: 200.0 mg/kg/injection, schedule: Q01DX001 (ip), vehicle: saline + alcohol 100 % of control | dose: 400.0 mg/kg/injection, schedule: Q01DX001 (ip), vehicle: saline + alcohol 96 % of control

CN=C(NC)c1ccc(NC(=O)/C=C\c2ccc(/C=C/C(=O)Nc3ccc(C(=NC)NC)cc3)cc2)cc1
inactive: dose: 7.5 mg/kg/injection, schedule: Q01DX Z (oral), vehicle: saline 95 % of control | dose: 15.0 mg/kg/injection, schedule: Q01DX Z (oral), vehicle: saline 91 % of control | dose: 30.0 mg/kg/injection, schedule: Q01DX Z (oral), vehicle: saline 95 % of control | dose: 60.0 mg/kg/injection, schedule: Q01DX Z (oral), vehicle: saline 103 % of control

O=C1c2ccccc2C(=O)c2c(Nc3ccccc3)ccc(O)c21
inactive: [2] 97 % of control | [3] 98 % of control

COc1ccccc1-n1c(O)c(N=Nc2ccccc2C)c(=O)n(-c2ccc(Br)cc2)c1=S
inactive: dose: 37.5 mg/kg/injection, schedule: Q01DX001 (ip), vehicle: Klucel (hydroxypropylcellulose) (HPC) 94 % of control | dose: 75.0 mg/kg/injection, schedule: Q01DX001 (ip), vehicle: Klucel (hydroxypropylcellulose) (HPC) 106 % of control | dose: 150.0 mg/kg/injection, schedule: Q01DX001 (ip), vehicle: Klucel (hydroxypropylcellulose) (HPC) 87 % of control

COc1ccc(/C=N\NC(=O)c2ccccc2)cc1
inactive: dose: 100.0 mg/kg/injection, schedule: Q04DX003 (ip), vehicle: saline with Tween-80 102 % of control | dose: 200.0 mg/kg/injection, schedule: Q04DX003 (ip), vehicle: saline with Tween-80 103 % of control | dose: 400.0 mg/kg/injection, schedule: Q04DX003 (ip), vehicle: saline with Tween-80 92 % of control

N#CC(C#N)=C1CCC(=C(C#N)C#N)CC1
inactive: dose: 50.0 mg/kg/injection, schedule: Q04DX003 (ip), vehicle: Klucel (hydroxypropylcellulose) (HPC) 104 % of control | dose: 100.0 mg/kg/injection, schedule: Q01DX001 (ip), vehicle: Klucel (hydroxypropylcellulose) (HPC) 105 % of control | [2] 121 % of control | dose: 200.0 mg/kg/injection, schedule: Q01DX001 (ip), vehicle: Klucel (hydroxypropylcellulose) (HPC) 118 % of control | [3] 96 % of control | dose: 400.0 mg/kg/injection, schedule: Q01DX001 (ip), vehicle: Klucel (hydroxypropylcellulose) (HPC) 105 % of control

CCCCCCOC(=O)CCC(=O)OCCCCCC
inactive: [4] 97 % of control | [2] 92 % of control | [5] 101 % of control | [3] 92 % of control | [6] 97 % of control | dose: 400.0 mg/kg/injection, schedule: Q04DX003 (ip), vehicle: Klucel (hydroxypropylcellulose) (HPC) 97 % of control

CC(C)(C)CC(C)(C)N(CSc1ccc([N+](=O)[O-])cc1)CSc1ccc([N+](=O)[O-])cc1
inactive: [1] 102 % of control | [7] 94 % of control | [8] 94 % of control

Cc1ccccc1NC(=O)NCCBr
inactive: dose: 50.0 mg/kg/injection, schedule: Q01DX009 (ip), vehicle: saline with Tween-80 95 % of control | dose: 100.0 mg/kg/injection, schedule: Q01DX009 (ip), vehicle: saline with Tween-80 95 % of control

O=C(O)C(Oc1ccc(Cl)cc1Cl)C(Oc1ccc(Cl)cc1Cl)C(=O)O (centres undefined)
active: [9] 155 % of control
inactive: dose: 100.0 mg/kg/injection, schedule: Q04DX002 (ip), vehicle: carboxymethylcellulose (CMC) 98 % of control | dose: 200.0 mg/kg/injection, schedule: Q04DX002 (ip), vehicle: carboxymethylcellulose (CMC) 88 % of control | dose: 400.0 mg/kg/injection, schedule: Q04DX002 (ip), vehicle: carboxymethylcellulose (CMC) 92 % of control | dose: 800.0 mg/kg/injection, schedule: Q04DX002 (ip), vehicle: carboxymethylcellulose (CMC) 98 % of control

Cc1c2cc[nH]c(C(F)(F)F)c2cc2c1nc1ccccc12
inactive: dose: 16.0 mg/kg/injection, schedule: Q01DX005 (ip), vehicle: saline 101 % of control | dose: 32.0 mg/kg/injection, schedule: Q01DX005 (ip), vehicle: saline 103 % of control | dose: 64.0 mg/kg/injection, schedule: Q01DX005 (ip), vehicle: saline 103 % of control | dose: 128.0 mg/kg/injection, schedule: Q01DX005 (ip), vehicle: saline 103 % of control

Oc1ccccc1C=Nc1ccc(N=Cc2ccccc2O)cc1
inactive: [1] 101 % of control | [7] 95 % of control | [8] 106 % of control

CC(C)(C)C1CC[N-]CC1.CC(C)(C)C1CC[N-]CC1.[Cl][Pt+2]([Cl])([Cl])[Cl]
inactive: dose: 12.5 mg/kg/injection, schedule: Q01DX009 (ip), vehicle: saline 96 % of control | dose: 12.5 mg/kg/injection, schedule: Q04DX003 (ip), vehicle: saline 97 % of control | dose: 25.0 mg/kg/injection, schedule: Q01DX009 (ip), vehicle: saline 92 % of control | dose: 25.0 mg/kg/injection, schedule: Q04DX003 (ip), vehicle: saline 90 % of control | dose: 50.0 mg/kg/injection, schedule: Q04DX003 (ip), vehicle: saline 93 % of control and 99 % of control | dose: 100.0 mg/kg/injection, schedule: Q04DX003 (ip), vehicle: saline 94 % of control and 97 % of control

O=P(OCc1ccccc1)(N(CCO)CCO)N(CCCl)CCCl (centres undefined)
inactive: dose: 25.0 mg/kg/injection, schedule: Q01DX Z (ip), vehicle: saline 91 % of control | dose: 50.0 mg/kg/injection, schedule: Q01DX Z (ip), vehicle: saline 100 % of control | dose: 100.0 mg/kg/injection, schedule: Q01DX Z (ip), vehicle: saline 94 % of control | dose: 200.0 mg/kg/injection, schedule: Q01DX Z (ip), vehicle: saline 103 % of control

N#Cc1ccccc1C(N)=O
inactive: dose: 12.5 mg/kg/injection, schedule: Q04DX002 (ip), vehicle: saline 107 % of control | dose: 25.0 mg/kg/injection, schedule: Q04DX002 (ip), vehicle: saline 98 % of control | dose: 50.0 mg/kg/injection, schedule: Q04DX002 (ip), vehicle: saline 102 % of control | dose: 100.0 mg/kg/injection, schedule: Q04DX002 (ip), vehicle: saline 90 % of control

O=NN(CCCl)C(=O)N1CCN(C(=O)N(CCCl)N=O)CC1
inactive: dose: 12.5 mg/kg/injection, schedule: Q01DX001 (ip), vehicle: carboxymethylcellulose (CMC) 112 % of control | dose: 25.0 mg/kg/injection, schedule: Q01DX001 (ip), vehicle: carboxymethylcellulose (CMC) 116 % of control | dose: 200.0 mg/kg/injection, schedule: Q01DX001 (ip), vehicle: carboxymethylcellulose (CMC) 95 % of control | dose: 300.0 mg/kg/injection, schedule: Q01DX001 (ip), vehicle: carboxymethylcellulose (CMC) 90 % of control | dose: 400.0 mg/kg/injection, schedule: Q01DX001 (ip), vehicle: carboxymethylcellulose (CMC) 87 % of control

O=C(N/N=C/c1cccc2ccccc12)c1ccc(O)cc1
inactive: dose: 100.0 mg/kg/injection, schedule: Q04DX002 (ip), vehicle: Klucel (hydroxypropylcellulose) (HPC) 100 % of control | dose: 200.0 mg/kg/injection, schedule: Q04DX002 (ip), vehicle: Klucel (hydroxypropylcellulose) (HPC) 100 % of control | [9] 103 % of control

Cc1ccc(CNC(=O)Nc2cccc(Cl)c2)cc1C
inactive: [4] 97 % of control | [5] 92 % of control | [6] 103 % of control

Cc1cc(C)nc(CCSS(=O)(=O)O)c1
inactive: [1] 104 % of control | [7] 102 % of control | [8] 98 % of control
